Test results: patent US4677105A, “2-alkoxycarbonylalkyl-3-oxo-5,6-diaryl-as-triazines having utility as therapeutics” (PF Medicament, priority 1985, dated 1987)
Where two headings read alike, the source gives them in different places.

Assays:
[1] = tested on: phenyl benzoquinone contortion; experiment: phenyl benzoquinone contortion test (analgesic properties); assay type: in vivo, mouse; settings: 0.5 h
Procedure: The activity in the phenyl benzoquinone contortion test of […] et al., J. Pharm. Exptl. […] Dose expressed in mg/kg in the mouse, 30 minutes before intraperitoneal injection of the algogenic agent. The results are expressed in percentage variation of the number of contortions.

solubility = assay type: physicochemical; settings: in words
[2] = analgesic activity, test not specified; assay type: in vivo; settings: in words
[3] = mouse, oral, 30 minutes before intraperitoneal injection of the algogenic agent, read-out: ED50

Compound	ED50 ([1]; Mus musculus, po) [mg/kg]	solubility (insoluble in) (solubility)	solubility (soluble in) (solubility)	ED50 [1, 3] [mg/kg]	analgesic activity [2]
CC(=O)Oc1ccccc1C(=O)O [Aspirin, reference compound]	100	–	–	–	–
CCOC(=O)Cn1nc(-c2ccc(OC)cc2)c(-c2ccc(OC)cc2)nc1=O [Example 1, 2-ethoxy carbonyl-methyl-3-oxo-5,6-di(paramethoxyphenyl)-as-triazine]	–	Insoluble in water, dilute bases and acids	Soluble in methylene chloride, chloroform, ether; alcohols and hot benzene	–	–
CCOC(=O)C(C)n1nc(-c2ccc(O)cc2)c(-c2ccc(O)cc2)nc1=O (centres unmarked) [Example 2, 2-(1-ethoxycarbonyl-1-ethyl)-3-oxo-5,6-di(parahydroxyphenyl)-as-triazine]	–	Insoluble in water, dilute bases and acids, benzene, chloroform, methylene chloride, ether	Soluble in hot alcohols	–	–
CCOC(=O)C(C)n1nc(-c2ccc(OC)cc2)c(-c2ccc(OC)cc2)nc1=O (centres unmarked) [Example 3, 2-(1-ethoxycarbonyl-1-ethyl)-3-oxo-5,6-di(paramethoxyphenyl)-as-triazine]	–	Insoluble in water, dilute bases and acids	Soluble in hot alcohols, benzene, chloroform, methylene chloride and ether	13	–
CCOC(=O)C(CC)n1nc(-c2ccc(OC)cc2)c(-c2ccc(OC)cc2)nc1=O (centres unmarked) [Example 4, 2-(1-ethoxycarbonyl-1-propyl)-3-oxo-5,6-di(paramethoxyphenyl)-as-triazine]	–	Insoluble in water, dilute bases and acids, ether	Soluble in hot alcohols, benzene, methylene chloride, chloroform	11	–
CCCC(C(=O)OCC)n1nc(-c2ccc(OC)cc2)c(-c2ccc(OC)cc2)nc1=O (centres unmarked) [Example 5, 2-(1-ethoxycarbonyl-1-butyl)-3-oxo-5,6-di(paramethoxyphenyl)-as-triazine]	–	Insoluble in water, dilute bases and acids	Soluble in hot alcohols, benzene, methylene chloride, chloroform, ether	16	–
COC(=O)C(C)n1nc(-c2ccc(OC)cc2)c(-c2ccc(OC)cc2)nc1=O (centres unmarked) [Example 6, 2-(1-methoxycarbonylethyl)-3-oxo-5,6-di(paramethoxyphenyl)-as-triazine]	–	Insoluble: Water, ether	Soluble in hot alcohols	12	–
CCOC(=O)C(C)n1nc(-c2ccccc2)c(-c2ccccc2)nc1=O (centres unmarked) [Example 7, 2-(1-ethoxycarbonyl-1-ethyl)-3-oxo-5,6-di (phenyl)-as-triazine]	–	–	–	18	effective analgesic agent
CCOC(=O)C(C)n1nc(-c2ccc(C)cc2)c(-c2ccc(C)cc2)nc1=O (centres unmarked) [Example 8, 2-(1-ethoxycarbonyl-1-ethyl)-3-oxo-5,6-di(p-methylphenyl)-as-triazine]	–	–	–	12	effective analgesic agent
CCOC(=O)C(C)n1nc(-c2ccc(Cl)cc2)c(-c2ccc(Cl)cc2)nc1=O (centres unmarked) [Example 9, 2-(1-ethoxycarbonyl-1-ethyl)-3-oxo-5,6-di (p-chlorophenyl)-as-triazine]	–	–	–	10	effective analgesic agent
CCOC(=O)C(C)n1nc(-c2ccc(OC)cc2)c(-c2ccc(Cl)cc2)nc1=O (centres unmarked) [Example 10, 2-(1-ethoxycarbonyl-1-ethyl)-3-oxo-5,6-(p-chloro-p-methoxy)-5,6-as-triazine]	–	–	–	12	effective analgesic agent
O=C(OCC(O)CO)c1ccccc1Nc1ccnc2cc(Cl)ccc12 (centres unmarked) [Glaphenine, reference compound]	–	–	–	35	–
